According to patent publication US11932673B2, “Sodium channel inhibitors” (priority 2017, dated 2024):
“And” between values parts separate entries of the source, which are not always exact repeats. Identical values can stand only once.

Assays:
trypsin = test: Phage TRF binding assay of KnotBody phage on immobilised biotinylated trypsin; details: EETI-II directly fused to the N-terminus of gene III; TRF
Description: Phage display technology facilitates isolation of binders to any given target from large combinatorial repertoires based on proteins and peptides that can be presented on the surface of filamentous phage^105. In order to isolate functional knottin-antibody fusions from the KnotBody libraries multiple rounds of phage display selections on trypsin (cognate antigen for the EETI-II donor) were carried out. Phage particles were prepared by rescuing KnotBody libraries using trypsin cleavable helper phage^102,106 Two rounds of phage display selections were performed on 10 μg/ml biotinylated trypsin immobilised on Streptavidin (for Round-1) or Neutravidin (for round-2) coated Maxisorp™ immunotubes (Thermo Scientific, Cat No. 444202). In both rounds of selection, phage libraries were pre-incubated with streptavidin coated paramagnetic beads (Thermo Fisher Scientific, Cat. No. 11205D). […] Polyclonal phage preparations from round-2 selection outputs were analysed for trypsin binding using a time resolved fluorescence (TRF) binding assay. In this assay, polyclonal phage binding to biotinylated trypsin immobilised on neutravidin (Thermo Fisher Scientific, Cat. No 31000) coated Maxisorp™ plates (Thermo Scientific, Cat. No. 437111) was detected using a mouse anti-M13 antibody (GE Healthcare, Cat. No. 27-9420-01) followed by europium conjugated anti-mouse antibody (Perkin Elmer, Cat. No. AD0124). […]

huASIC1a = molecular target: T1, huASIC1a (Homo sapiens, UniProt P78348); test: QPatch automated whole-cell patch-clamp on HEK293 cells stably expressing huASIC1a; type: cell-based; details: full blocking 300 nM PcTx1 (positive control) perfused at end of each KnotBody or control incubation, then pH 6.0; one value per preceding sample
T1 sequence (P78348 whole entry, looked up): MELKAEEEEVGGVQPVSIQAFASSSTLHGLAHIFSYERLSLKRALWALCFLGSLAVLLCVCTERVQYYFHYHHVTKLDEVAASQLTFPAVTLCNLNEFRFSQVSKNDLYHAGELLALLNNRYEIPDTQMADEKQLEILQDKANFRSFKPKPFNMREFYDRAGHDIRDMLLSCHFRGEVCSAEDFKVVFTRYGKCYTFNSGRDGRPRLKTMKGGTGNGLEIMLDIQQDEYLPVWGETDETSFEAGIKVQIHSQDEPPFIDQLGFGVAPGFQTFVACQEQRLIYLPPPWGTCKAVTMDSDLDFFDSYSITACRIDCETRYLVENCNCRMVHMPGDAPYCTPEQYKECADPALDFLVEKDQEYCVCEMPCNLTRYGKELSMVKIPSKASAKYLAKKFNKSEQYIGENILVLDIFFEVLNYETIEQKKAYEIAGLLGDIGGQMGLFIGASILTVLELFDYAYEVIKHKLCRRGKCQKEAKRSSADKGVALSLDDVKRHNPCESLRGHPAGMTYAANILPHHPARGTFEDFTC
Description: Knottin Kv 1.3 and ASIC1a blockers expressed in the KnotBody format (see examples 6 and 7) were tested for their ability to inhibit the function of the ion channel targets. The effect of these KnotBodies on cells expressing the human Kv 1.3 (huKv1.3) or human ASIC1a channels was assessed using QPatch automated whole-cell patch-clamp electrophysiology (Sophion).
To functionally assess the ASIC1a KnotBodies, HEK293 cells stably expressing huASIC1a (Sophion) were analysed using a QPatch electrophysiology assay in the presence or absence of the KnotBody fusions (using KB_A12 as a recipient and replacing the original EETI-II donor as shown in Table 8). The “parental” KB_A12 with the EETI-II donor was used as a negative control. Internal and external physiological solutions were freshly prepared prior to the assay. […]
At the end of each KnotBody incubation and subsequent ASIC1a current activation, a full blocking concentration (300 nM) of the ASIC1a knottin inhibitor PcTx1 (positive control) was perfused onto the cell recording and a final activating pH 6.0 external solution was applied. The percentage remaining signal between activating pH 6.0 baseline (i.e. pre-KnotBody) and post-KnotBody incubation was determined.

## EETI-II [reference compound]
trypsin
  binding to trypsin of phage: no detectable binding to trypsin

## PcTx1: ASIC1a knottin inhibitor, positive control at 300 nM; SEQ ID NO: 20
huASIC1a
  % current remaining PcTx1 (300 nM): 2% and 1.9% and 2.7% and 3.8% and 3.6%
